Values quoted from earlier work in publication PMC9138994 (Biomolecules, 2022).
Marks after values point to notes of the source that are not given here.

Legend:
H1R = tested on: H1R; parameters: method as in earlier work; details: ref 19 (Vanover et al.); cited from earlier work
D3R = tested on: D3R; parameters: method as in earlier work; details: ref 19 (Vanover et al.); cited from earlier work

Q: With CC(C)COc1ccc(CNC(=O)N(Cc2ccc(F)cc2)C2CCN(C)CC2)cc1 [Pimavanserin, reference compound] as the molecule, how does the “inhibition at 10 µM, H1R” value (H1R) read?
A: inhibition at 10 µM: <50% ^a

Q: What about the “inhibition at 10 µM, D3R” value (D3R) of the same molecule?
A: inhibition at 10 µM: 60% ^a
